US20230150951A1, “2,5- OR 2,6-DISUBSTITUTED HYDROQUINONE DERIVATIVES WITH AT LEAST ONE CARBOXY, SULFO OR AMIDO GROUP USEFUL AS MEDICAMENTS” (OM PHARMA SA, priority 2020, published 2023)
Entries after “also recorded” stand apart in the source; their conditions may differ.

Tests used:
[1] = tested on: acute pancreatitis murine model; test: Caerulein-induced acute pancreatitis murine model; assay type: in vivo, Balb/c mice; parameters: Serum IL33 level / Serum TGF-B level: unit not given here; details: for Acinar cell necrosis (group mean score) / Haemorrhage (group mean score) / Interstitial oedema (group mean score) / Leukocyte infiltration (group mean score) / Mean terminal BW (% of initial) / Mean terminal pancreas weight / Pancreas histopathology observations (H&E) / Schmidt Score (H&E) / Pancreas IL33 level / Pancreas MPO activity / Pancreas TGF-B level / Serum IL33 level / Serum TGF-B level / Serum amylase level / Serum lipase level: 1st experiment, 15 mg/kg IV, Ib-010a and IVc-059a 150 mg/kg PO, Pirfenidone 40 mg/kg IV; for Acinar cell necrosis (group mean score) / Haemorrhage (group mean score) / Interstitial oedema (group mean score) / Leukocyte infiltration (group mean score) / Mean terminal BW (% of initial) / Mean terminal pancreas weight / Pancreas histopathology observations (H&E) / Schmidt Score (H&E): caerulein induced; for Schmidt Score (H&E): induced + vehicle = 10, non-induced = 0; for Pancreas IL33 level / Pancreas MPO activity / Pancreas TGF-B level: terminal pancreatic tissue; for Serum IL33 level / Serum TGF-B level / Serum amylase level / Serum lipase level: terminal serum; for pancreatic tissue levels of IL33: compared to the induced group; for Amylase / IL-33 / Lipase / MPO / Schmidt Score / TGF-B / Trichome staining (Fibrosis % area): 15 mg/kg, Pirfenidone 100 mg/kg
Procedure: Therapeutic efficacy of the compounds according to the present invention was assessed on an acute pancreatitis murine model. Tissue samples were obtained to allow post in-life analysis of pancreatitis parameters. Plasma samples were also obtained to assess animal exposure levels after administration of the compounds.
Animals: A total of 70 female Balb/c mice aged 8-10 weeks weighing approximately 20-25 g were used for the study (Charles River). After 7 days acclimatization, they were allocated into the different groups. […] Cages, bedding, and water were sanitized before use. Animals were provided with Corn-o-cobs enrichment bedding to provide environment enrichment and nesting material. […] The animal holding room were maintained as follows—room temperature at 20-24° C., humidity at 30-70% and a 12 h light/dark cycle used. Although animals used in this study were immuno-competent, preparation of dosing solutions and dosing/weighing of animals were carried out in a sterile biosafety cabinet.
Final formulation was in 5% DMSO, 10% Solutol, 10% PEG400, 75% 0.9% Saline and pH adjusted to 7 with 0.5M NaOH solution.
Final formulation is in 5% DMSO, 10% Solutol, 10% PEG400, 75% 0.9% Saline and pH adjusted to 7 with 0.5M NaOH solution. For per os (PO) dosing IVc-059a is formulated in water. Drug solutions were formulated on the day of dosing.
The purposes of this study were to assess efficacy compounds in an acute pancreatitis model (14 days), generate tissue samples to allow post in-life analysis of pancreatitis parameters and generate four plasma samples to assess animal exposure levels after first and last injection obtained from blood samples taken 1 h and 24 h after first and last injection.
Study Design: On the first study day animals were randomly be assigned to treatment groups, ensuring an equal spread of bodyweight. Mice (except negative control group) were treated with test compounds were given 5 minutes prior to caerulein dosing, followed by injection with caerulein at […] via intraperitoneal route (IP) daily during the study.
Treatment of test compounds were given 5 minutes prior to caerulein dosing.
Sampling and post in-life analyses: at times indicated above a whole blood sample (60 μl) were taken from the lateral tail vein into tubes coated with K2-EDTA. Plasma samples were prepared and stored frozen at −20° C. Plasma samples were sent to client bioanalysis provider Eurofins (FR) for quantification of compound.
Terminal Sampling: Prior to termination animals were weighed. Terminal study animals were culled via CO2 inhalation. A terminal blood sample was taken via cardiac puncture and plasma prepared. Lipase and Amylase activities were measured via ELISA using commercially available ELISA kits. Remaining plasma was stored for future cytokine analyses. Pancreas tissue was resected and weighed, and a section ([…]) snap frozen and analysed for quantification of compound in pancreas sample. A section ([…]) was processed for measurement of MPO activity, IL-33 and TGF-B levels via ELISA. The remainder was fixed in formalin and embedded in paraffin wax. H&E staining was carried out and section assessed using Schmidts standard scoring system, examining: edema, inflammatory infiltration, parenchymal necrosis, haemorrhage. Massons' Trichrome staining was carried out and area covered by fibrotic tissue quantified digitally using QuPath software. Terminal serum samples was used to assess blood chemistry using an IdeXX CHEM15 and LYTE4 clip (4 animals per treatment group).
Histopathology assessment of pancreatic injury based on 4 criteria: Oedema, Inflammatory infiltration, Parenchymal necrosis, Haemorrhage and scored as described below.
Schmidt score is the evaluation of the efficacy of the compounds based on the four histopathology criteria as described in the table below.

[2] = tested on: STZ-induced diabetes model; test: STZ-induced diabetic nephropathy, kidney disease and retinopathy model (28 days treatment); details: for Serum CRP: 28 days of treatment, vs vehicle induced controls; for Serum TNF-α: 28 days, p<0.05; for Mean day 0 blood glucose Concentration (mmol/L) (SD) / Mean day 28 blood glucose Concentration (mmol/L) (SD) / Blood BUN / Disease Score (kidney, H&E) / Eye area (retinal flatmount area covered by vasculature) / Trichrome staining (Kidney fibrosis) / Blood CRP / Blood IL-6 / Blood TGF-beta / Blood TNF-alpha / Urine albumine creatinine ratio (ALB:CRE): 15 mg/kg IV, Captopril 50 mg/kg PO; for Blood BUN / Disease Score (kidney, H&E) / Eye area (retinal flatmount area covered by vasculature) / Trichrome staining (Kidney fibrosis) / Blood CRP / Blood IL-6 / Blood TGF-beta / Blood TNF-alpha / Urine albumine creatinine ratio (ALB:CRE): day 28 of treatment (week 9); for Blood CRP / Blood IL-6 / Blood TGF-beta / Blood TNF-alpha: serum; for Urine albumine creatinine ratio (ALB:CRE): urine pooled per group
Procedure: A total of 70 female CD-1 mice aged 5-7 weeks weighing approximately 25-30 g were used for the study. These were purchased from Charles River, UK and had 7 days acclimatization period. Animals were housed in IVC cages (up to 5 per cage) with individual mice identified by tail mark. All animals were allowed free access to a standard certified commercial diet and sanitised water during the study. The holding room was maintained under standard conditions: 18-24° C., 55-70% humidity and a 12 h light/dark cycle.
Mice were starved for 6 hours prior to injection. One week after completion of induction glucose levels were monitored and mice with levels less than 15 mml/L (280 mg/gL) were removed from the study as they had not developed the ideal severity of diabetes. Glucose levels were be monitored weekly and 5 weeks after STZ induction biochemical assessment of renal injury was carried out by measuring urine albumin and creatinine levels and confirming they were within the desired range. After successful completion of this stage animals were assigned to treatment groups.
Treatment continued for 4 weeks (28 days) with weekly measurement of blood glucose and urine albumin/creatinine. The study schedule is detailed below looking at weekly (week 5 to 9) blood glucose levels, urine albumin creatinie ratios, and terminal (week 9) blood chemistry and cytokines, kidney histology and eye-retinal leakage.
Urine Albumin: Creatinine (ALB: CRE): Urine was collected weekly and pooled for each treatment group.
ELISAs: At the end of the treatment period blood was collected and processed to serum. Serum levels of CRP, TGF-β, IL-6 and TNF-α were quantified using commercially available ELISA kits, results are shown in Table 56.

O=C(O)c1cc(O)c(C(=O)Nc2ccccc2C(=O)O)cc1O [Ia-001a, 4-(2-carboxyphenylaminocarbonyl)-2,5-dihydroxybenzoic acid]
Acinar cell necrosis (group mean score) [1]: 0.9
Haemorrhage (group mean score) [1]: 1.1
Interstitial oedema (group mean score) [1]: 1.3
Leukocyte infiltration (group mean score) [1]: 3.0
Mean terminal BW (% of initial) [1]: 90.3 % of initial
Mean terminal pancreas weight [1]: 0.083 g
Pancreas histopathology observations (H&E) [1]: Oedema observed throughout pancreas; also recorded: Haemorrhage observed; also recorded: Mild acinar cell less necrosis observed; also recorded: Leukocyte infiltration throughout; also recorded: Abnormal islet morphology observed; also recorded: Disruption to the basophilic region
Schmidt Score (H&E) [1]: 6.3
Pancreas IL33 level [1]: 330 ± 162
Pancreas MPO activity [1]: 3.76
Pancreas TGF-B level [1]: 592 ± 358
Serum IL33 level [1]: 39.52
Serum TGF-B level [1]: 8.69
Serum amylase level [1]: 34.07
Serum lipase level [1]: 6.72
pancreatic tissue levels of IL33 ([1]; first experiment, IV): significant decrease
Serum CRP [2]: significantly reduced
Serum TNF-α [2]: significantly lower than vehicle induced controls
Mean day 0 blood glucose Concentration (mmol/L) (SD) [2]: 25.7 (6.3) mmol/L
Mean day 28 blood glucose Concentration (mmol/L) (SD) ([2]; day 28): 31.6 (3.8) mmol/L
Blood BUN [2]: 25.1 ± 3.1
Disease Score (kidney, H&E) [2]: 7 ± 1
Eye area (retinal flatmount area covered by vasculature) [2]: 9.9 ± 1.9
Trichrome staining (Kidney fibrosis) [2]: 1.87 ± 0.65
Blood CRP [2]: 4759 ± 1181
Blood IL-6 [2]: 114.16 ± 29.96
Blood TGF-beta [2]: 15.54 ± 2.8
Blood TNF-alpha [2]: 342.3 ± 15.6
Urine albumine creatinine ratio (ALB:CRE) [2]: 35.68

O=C(Nc1ccccc1-c1nnn[nH]1)c1cc(O)c(C(=O)Nc2ccccc2-c2nnn[nH]2)cc1O [Ic-001aTz2, N1,N4-bis(2-(1H-tetrazol-5-yl)phenyl)-2,5-dihydroxyterephthalamide]
Amylase ([1]; second experiment, IV): 50.912 mU/mL
IL-33 ([1]; second experiment, IV): 493 ± 126 ng/mL
Lipase ([1]; second experiment, IV): 8.305 mU/mL
MPO ([1]; second experiment, IV): 2.63 ± 0.63 U/mg
Schmidt Score ([1]; second experiment, IV): 3.9 ± 0.8
TGF-B ([1]; second experiment, IV): 696 ± 448 ng/mL
Trichome staining (Fibrosis % area) ([1]; second experiment, IV): 1.366 ± 0.562 % area

O=C(O)c1cc(NC(=O)c2cc(O)c(C(=O)O)cc2O)cc(NC(=O)c2cc(O)c(C(=O)O)cc2O)c1 [Ib-010a, 3,5-bis(2,5-dihydroxy-4-carboxybenzoylamino)benzoic acid]
Acinar cell necrosis (group mean score) [1]: 1.0
Haemorrhage (group mean score) [1]: 0.8
Interstitial oedema (group mean score) [1]: 1.5
Leukocyte infiltration (group mean score) [1]: 3.0
Mean terminal BW (% of initial) [1]: 91 % of initial
Mean terminal pancreas weight [1]: 0.091 g
Pancreas histopathology observations (H&E) [1]: Oedema observed throughout pancreas and within; also recorded: Mild haemorrhage observed; also recorded: Mild acinar cell necrosis observed; also recorded: Leukocyte infiltration observed; also recorded: Disruption to the basophilic region
Schmidt Score (H&E) [1]: 6.3
Pancreas IL33 level [1]: 157 ± 70
Pancreas MPO activity [1]: 1.83
Pancreas TGF-B level [1]: 219 ± 140
Serum IL33 level [1]: 35.36
Serum TGF-B level [1]: 6.87
Serum amylase level [1]: 37.46
Serum lipase level [1]: 9.06
TGF-B levels in pancreas ([1]; first experiment, IV): decreased significantly
pancreatic tissue levels of IL33 ([1]; first experiment, IV): significant decrease
Mean day 0 blood glucose Concentration (mmol/L) (SD) [2]: 25.1 (6.1) mmol/L
Mean day 28 blood glucose Concentration (mmol/L) (SD) ([2]; day 28): 31.1 (3.4) mmol/L
Blood urea nitrogen levels ([2]; day 28, vs induced vehicle controls): significantly lower than induced vehicle controls
Blood BUN [2]: 20.5 ± 3.4
Disease Score (kidney, H&E) [2]: 6 ± 1
Eye area (retinal flatmount area covered by vasculature) [2]: 11.8 ± 1
Trichrome staining (Kidney fibrosis) [2]: 1.97 ± 0.8
Blood CRP [2]: 5915 ± 1352
Blood IL-6 [2]: 102.72 ± 25.4
Blood TGF-beta [2]: 13.17 ± 3.11
Blood TNF-alpha [2]: 395.6 ± 46.7
Urine albumine creatinine ratio (ALB:CRE) [2]: 24.28
Urine ALB:CREA ([2]; treatment day 28): reduced

O=C(O)c1cc(O)c(C(=O)Nc2ccccc2-c2nnn[nH]2)cc1O [Ia-001a-Tz, 4-(2-(1H-tetrazol-5-yl)phenyl-aminocarbonyl)-2,5-dihydroxybenzoic acid]
Mean terminal BW (% of initial) [1]: 89.1 % of initial
Mean terminal pancreas weight [1]: 0.084 g
Schmidt Score (H&E) [1]: 5.9
Pancreas IL33 level [1]: 154 ± 49
Pancreas MPO activity [1]: 2.68
Pancreas TGF-B level [1]: 507 ± 289
Serum IL33 level [1]: 37.02
Serum TGF-B level [1]: 8.69
Serum amylase level [1]: 35.35
Serum lipase level [1]: 8.57
pancreatic tissue levels of IL33 ([1]; first experiment, IV): significant decrease
Serum CRP [2]: significantly reduced
Serum TNF-α [2]: significantly lower than vehicle induced controls
Mean day 0 blood glucose Concentration (mmol/L) (SD) [2]: 24.9 (7.4) mmol/L
Mean day 28 blood glucose Concentration (mmol/L) (SD) ([2]; day 28): 30.8 (6.2) mmol/L
Blood BUN [2]: 25.3 ± 3.1
Disease Score (kidney, H&E) [2]: 8 ± 3
Eye area (retinal flatmount area covered by vasculature) [2]: 11.8 ± 1
Trichrome staining (Kidney fibrosis) [2]: 2.6 ± 0.98
Blood CRP [2]: 5191 ± 993
Blood IL-6 [2]: 112.35 ± 20.01
Blood TGF-beta [2]: 14.76 ± 2.95
Blood TNF-alpha [2]: 327 ± 40.7
Urine albumine creatinine ratio (ALB:CRE) [2]: 29.86

O=C(O)c1cc(NC(=O)c2cc(O)c(C(=O)O)cc2O)cc(C(=O)O)c1 [Ia-015a, 5-(4-carboxy-2,5-dihydroxybenzamido)isophthalic acid]
Amylase ([1]; second experiment, IV): 51.669 mU/mL
IL-33 ([1]; second experiment, IV): 398 ± 148 ng/mL
Lipase ([1]; second experiment, IV): 5.31 mU/mL
MPO ([1]; second experiment, IV): 2.68 ± 0.6 U/mg
Schmidt Score ([1]; second experiment, IV): 4.6 ± 0.8
TGF-B ([1]; second experiment, IV): 547 ± 373 ng/mL
Trichome staining (Fibrosis % area) ([1]; second experiment, IV): 1.704 ± 1.621 % area
Lipase activity in serum ([1]; second experiment, pirfenidone 100 mg/kg, compounds 15 mg/k, vs vehicle treated animals): significantly lower than that in vehicle treated animals
